Experiments:
Experiment in all cases: relative viability (nuclei count vs DMSO), 5 days (fraction); higher = more cells survive
Zebularine + Luminespib = compound: O=c1ncccn1[C@@H]1O[C@H](CO)[C@@H](O)[C@H]1O [Zebularine] + CCNC(=O)c1noc(-c2cc(C(C)C)c(O)cc2O)c1-c1ccc(CN2CCOCC2)cc1 [Luminespib] (partner 0.01 µM)
Method in brief: (§1)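 Values are medians from duplicate plates. Each reflects relative viability, defined as the nuclei count of treated wells over that of vehicle wells. Lung cancer cell lines in 1536-well plates were pin-tool dosed one day after seeding with one drug alone or with a fixed anchor-drug dose plus five library-drug doses (not always all listed) in √10 steps, then fixed, stained and imaged at 4× after 5 days.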

BI-D1870 + Crizotinib = compound: CC(C)CCN1c2nc(Nc3cc(F)c(O)c(F)c3)ncc2N(C)C(=O)C1C [BI-D1870] + C[C@@H](Oc1cc(-c2cnn(C3CCNCC3)c2)cnc1N)c1c(Cl)ccc(F)c1Cl [Crizotinib] (partner 1 µM)
Method in brief: as §1

Zebularine + Dasatinib = compound: O=c1ncccn1[C@@H]1O[C@H](CO)[C@@H](O)[C@H]1O [Zebularine] + Cc1nc(Nc2ncc(C(=O)Nc3c(C)cccc3Cl)s2)cc(N2CCN(CCO)CC2)n1 [Dasatinib] (partner 0.075 µM)
Method in brief: as §1

Zebularine + Navitoclax = compound: O=c1ncccn1[C@@H]1O[C@H](CO)[C@@H](O)[C@H]1O [Zebularine] + CC1(C)CCC(c2ccc(Cl)cc2)=C(CN2CCN(c3ccc(C(=O)NS(=O)(=O)c4ccc(N[C@H](CCN5CCOCC5)CSc5ccccc5)c(S(=O)(=O)C(F)(F)F)c4)cc3)CC2)C1 [Navitoclax] (partner 0.5 µM)
Method in brief: as §1

Cell Line	relative viability (Zebularine + Luminespib; first compound 1 µM)	relative viability (Zebularine + Luminespib; first compound 3.162 µM)	relative viability (Zebularine + Luminespib; first compound 10 µM)	relative viability (Zebularine + Luminespib; first compound 31.62 µM)	relative viability (Zebularine + Luminespib; first compound 100 µM)	relative viability (BI-D1870 + Crizotinib; first compound 0.04 µM)	relative viability (BI-D1870 + Crizotinib; first compound 0.1265 µM)	relative viability (BI-D1870 + Crizotinib; first compound 0.4 µM)	relative viability (BI-D1870 + Crizotinib; first compound 1.265 µM)	relative viability (BI-D1870 + Crizotinib; first compound 4 µM)	relative viability (Zebularine + Dasatinib; first compound 1 µM)	relative viability (Zebularine + Dasatinib; first compound 3.162 µM)	relative viability (Zebularine + Dasatinib; first compound 10 µM)	relative viability (Zebularine + Dasatinib; first compound 31.62 µM)	relative viability (Zebularine + Dasatinib; first compound 100 µM)	relative viability (Zebularine + Navitoclax; first compound 1 µM)	relative viability (Zebularine + Navitoclax; first compound 3.162 µM)	relative viability (Zebularine + Navitoclax; first compound 10 µM)	relative viability (Zebularine + Navitoclax; first compound 31.62 µM)	relative viability (Zebularine + Navitoclax; first compound 100 µM)
NCI-H2023	0.942	1.04	0.301	0.448	0.174	0.724	0.525	0.579	0.612	0.497	0.636	0.572	0.423	0.392	0.213	1.14	1.04	0.851	0.924	0.247
NCI-H2085	0.625	0.436	0.339	0.423	0.277	0.861	0.561	0.819	0.724	0.772	0.209	0.226	0.243	0.222	0.246	1.19	1.17	0.868	1.08	0.573
NCI-H2087	0.19	0.17	0.143	0.176	0.141	0.918	0.914	1	1.11	0.739	1.14	0.786	0.426	0.972	0.631	1.16	0.885	0.488	0.767	0.37
NCI-H2126	1.01	0.85	0.889	0.795	0.379	1.09	1.07	0.994	1.04	1.01	0.813	0.538	0.612	0.569	0.488	0.862	0.813	0.766	0.735	0.509
NCI-H2170	1.07	0.942	0.223	0.689	0.272	1.31	1.06	1.24	1.24	1.06	0.658	0.572	0.364	0.559	0.278	0.694	0.642	0.453	0.574	0.432
NCI-H2228	0.198	0.147	0.175	0.226	0.153	0.645	0.479	0.374	0.435	0.329	0.606	0.518	0.322	0.448	0.222	1.46	0.843	0.655	0.722	0.191
NCI-H2347	0.504	0.418	0.293	0.213	0.28	0.812	0.674	0.7	0.662	0.577	0.309	0.322	0.302	0.227	0.254	0.836	0.81	0.563	0.475	0.369
NCI-H2405	0.705	0.779	0.651	0.797	0.498	0.952	0.863	0.836	0.94	0.795	0.229	0.213	0.207	0.188	0.211	0.913	0.831	0.798	0.833	0.61

Reference: the supplement of paper PMC10307832
